Like-named read-outs stand apart in the source and are kept apart here.
Legend:
[1] = Acute and subchronic toxicology in Balb-c mice by the endovenous route; format: in vivo
Protocol: Acute and Subchronic Toxicology of DM-1 in Balb-c Mice by the Endovenous Route.
Balb-c mice were weighted and housed in the biotery, subdivided into groups of 05 animals per cage and, after two weeks, received the DM-1 compound in different concentrations by the endovenous route. The compound was administered in a 0.2 mL volume using microseringe, for all concentrations, through the retro-orbital venous plexus.

B16F10 melanoma cells = experiment: Cytotoxic and antiproliferative effects by the MTT colorimetric method on B16F10 melanoma cells; format: cell-based, murine; details: for IC50: Mus musculus
From the text: Analysis of Cytotoxic and Antiproliferative Effects of HB-1 Compound and Miglyol 810® as Control by the MTT Colorimetric Method on B16F10 Melanoma Cells.
The colorimetric methodology for the respiratory route of mitochondria MTT (3-(4,5-dimethylthiazol-2-yl)2,5-diphenyl tetrazolium bromide) was used, as described by MOSMANN (1983). This method is based on the reduction of MTT to formazan by living cells. After growth and in vitro confluence of normal and tumoral cells, different concentrations of the HB-1 compound diluted in Miglyol 810® and the diluent-control (Miglyol 810®) have been added on the adhering cells, incubated for 24 hour. After the referred period, 10 μl of MTT (5 mg/mL) were added and incubated for 3 hours in stove with 5% CO2 at 37° C. After this period, the content of the culture plates were centrifuged for 2 minutes at 1800 rpm, at 4° C., the supernatant was removed and 100 μL of dimethyl sulfoxide (DMSO) were added to dissolve formazan crystals previously constituted and precipitated. The absorbances were obtained by an ELISA reader at 540 nm (TiterTek Multiskan) wavelength, with the results obtained shown in FIG. 12.
IC50 Evaluation for B16F10 Melanoma Cells, Obtained from the Linear Equation.

T lymphocytes = experiment: Cytotoxic and proliferative activity on T lymphocytes (MTT, compared to PHA); format: cell-based, C57BL/6J mice
Protocol: Preparation of T Lymphocytes
Groups composed by 5 C57BL/6J mice of 2 months of age were sacrificed by cervical displacement and its lymph nodes chain from axillary, popliteal, and mesenteric regions were removed under sterile conditions. Lymph nodes were maintained in RPMI-1640 culture medium supplemented with 10% inactivated bovine fetal serum at 56° C. in the presence of antibiotics, and debridement was performed with the assistance of a bistury. The resulting cell suspension was filtered through 30 μm dialysis membrane and centrifuged for 10 minutes at 1800 rpm at 4° C. Cell pellet was resuspended in 5 mL RPMI complete medium and, after that, incubated in Petri dishes containing 10 mL bovine fetal serum for 1 hour in stove, at 37° C. and 5% CO2. […] Cell concentration was adjusted in Mallassez chamber to a 5×10^5 cells/mL concentration and cell viability was determined by the exclusion method with Trypan blue.
Cytotoxic and proliferative activities were determined in a 96 well plate and compared to mitogenic activity of phytohemagglutinin (PHA) and evaluated by the MTT calorimetric method. The obtained values were expressed as percentage.
The data of each experiment were statistically analysed by the ANOVA variance test with de p<0.05 significance.

[2] = cited from earlier work
[3] = system: human fibroblasts of normal skin; experiment: MTT cytotoxic and antiproliferative effects on human fibroblasts of normal skin; format: cell-based; details: diluted in Miglyol 810, 24 hours
Protocol: Analysis of Cytotoxic Effects by the MTT Method and Antiproliferative Effects for HB-2 Compound Diluted in Miglyol 810® and Miglyol 810® Control on Human Fibroblasts of Normal Skin.
Skin fragments were asseptically collected during surgical procedures for tissue remotion in aesthetic surgery and immediately transferred to 50 mL sterile vials containing HAM F-12 (Gibco) culture medium supplemented with 20% of bovine fetal serum. Fragments were chopped, cleaned, and the smaller fragments were cultivated in Petri dishes in a Ham-F12 culture medium supplemented with 10% bovine fetal serum, and kept in humidified stoven at 37° C. and 5% C02.
When attained subconfluence, the cells were trypsinized for 5 minutes, inactivated with 10% bovine fetal serum, centrifuged for 10 minutes at 2000 rpm at 4° C., transferred to 96 well flat bottom plates, and cultivated for 24 hours in a CO2 5% stoven. Fibroblasts were treated for 24 hours with different concentrations of HB-2 compound diluted in Miglyol 810® and the control group received the same volumes of Miglyol alone; cytotoxic and antiproliferative effects were evaluated by the MTT colorimetric method.

B16F10 melanoma = B16F10 melanoma tumors implanted in C57BL/6J mice, intraperitoneal treatment; tumor area and volume; format: in vivo; details: diluted in Miglyol 810, intraperitoneal 100 μl daily, 14 days
Protocol: After the Day 4 of tumor cells implant (2×10^5 tumoral cells/mL), the animals were splitted in two groups: the test group, treated with HB-1 compound diluted in Miglyol 810® and the control group, which received only the diluent (Miglyol 810®) in the same volume as the test group. The animals were daily treated by intraperitoneal route. Concomitantly, measurements of animal weight and tumor size (two measures—length×width) were performed and tumor aspect registered by photographies.
After the Day 14, the animals were sacrificed by cervical displacement, tumors were removed, and necropsy performed to remove all internal organs and macroscopic lesions for hystopathologic analysis.
Tumoral parameters were obtained by calculation of tumor average area (A) and volume (V), through the following formulas A=πR^2 and V=4/3πR^3, where (R=average tumor radius). […]
After tumoral cell implant, the animals were treated with the HB-2 compound diluted in Miglyol 810® and with (HB2+HB-1) conjugate whereas the control group received the same volume of diluent and by the same administration route (intraperitoneal—100 μl). Daily, the animals received the compounds (100 μl) and the control group received Miglyol 810®, the animals were weighted, and the tumors were measured (length×width) and photographed. […]

For `COc1cc(/C=C/C(=O)/C=C/c2ccc(O)c(OC)c2)ccc1[O-].[Na+]` [DM-1, sodium 4-[5-(4-hydroxy-3-methoxy-phenyl)-3-oxo-penta-1,4-dienyl]-2-methoxy-phenolate], the “LD50 compared to doxorubicin, fold smaller” value ([1]; Balb-c, mouse, in vivo, 24 h) was 35 fold, the “50% lethal dose (DL50)” value ([1]; endovenous route) was 14 mg/kg and the maximum tolerable dose ([1]; endovenous route) was 14 mg/kg. For the same molecule, the “behavioral alteration after the administration” value ([1]; endovenous, 0.2 mL via retro-orbital venous plexus) was “no behavioral alteration was observed”, the “macroscopic and hystopathologic alterations of the internal organs” value ([1]; necropsy at Day 30) was “no significant macroscopic and hystopathologic alterations” and the “acute respiratory and cardiac toxicity” value ([1]; preclinic tests) was “has not present any suggestive effect of acute respiratory and cardiac toxicity”. For the same molecule, the “increase in cytotoxic effects (in vitro efficacy)” value (B16F10 melanoma cells; monosodium composition relative to HB-1) was 7.0 fold.
For `COc1cc(/C=C/C(=O)/C=C/c2ccc([O-])c(OC)c2)ccc1[O-].[Na+].[Na+]` [DM-2, disodium 3-oxo-penta-1,4-dienyl-bis(2-methoxy-phenolate)], the “toxic activity on normal cells” value (T lymphocytes; T lymphocytes) was “no toxic activity on normal cells”, the “proliferative activity of T lymphocytes” value (T lymphocytes; different concentrations, compared to PHA 2.5 and 5.0 μg) was “induced no proliferative activity” and the “LETAL DOSE 50%” value ([1]; comparison table, own compound) was 700 mg/kg. For the same molecule, the “in vitro efficacy in relation to the monosodium DM-1 compound, fold smaller” value (B16F10 melanoma cells) was “around 6.0 fold”, the IC50 (B16F10 melanoma cells; B16-F10, read-out: DOSE, footnote: obtained by preclinic experimental models) was 1.9 µg/mL and the IC50 (B16F10 melanoma cells; B16-F10, sodium salts, B16F10 murine melanoma, MTT, read-out: IC50) was 7.95 µg/mL.
For `COc1cccc2c1C(=O)c1c(O)c3c(c(O)c1C2=O)C[C@@](O)(C(=O)CO)C[C@@H]3O[C@H]1C[C@H](N)[C@H](O)[C@H](C)O1` [Doxorubicin], the “50% LETHAL DOSE” value ([2]; background table) is listed as 20 mg/kg and the “LETAL DOSE 50%” value ([2]; comparison table, drugs of the therapeutics) is listed as 20 mg/kg.
For `COc1cc(C=CC(=O)C=Cc2ccc(OC(C)=O)c(OC)c2)ccc1OC(C)=O` [HB-2, 4-[5-(4-acetoxy-3-methoxy-phenyl)-3-oxo-penta-1,4-dienyl]-2-methoxy-phenylacetate], the “cytotoxic effect in normal human fibroblasts” value [3] was “no cytotoxic effect was observed” and the “reduction of tumoral burden (tumor area and volume)” value (B16F10 melanoma) was 60%.

— patent US8859625B2, “Methods to prepare penta-1,4-dien-3-ones and substituted cyclohexanones and derivatives with antitumoral and antiparasitic properties, the compounds and their uses” (Universidade Bandeirante de Sao Paulo-Academia, Paulista …, priority 2006, dated 2014)
